The structures appear in SMILES notation.

Experiment [1] has as its system HepG2 cells. The experiment is described as follows: Active oxygen (ROS) scavenging ability under ER stress (H2DCFDA). The class given is cell-based, human. The following applies: 5 μM compound; for amount of ROS: Thapsigargin or Tunicamycin; for inhibition of ROS production and removal of ROS: Thapsigargin-treated group, compared with HET0016. How it is done:
After culturing HepG2 cells, a human liver cell line, in high-glucose DMEM medium (Dulbecco's modified Eagle's medium, glucose 25 mM) in the presence of 10% fetal bovine serum (FBS), an experiment was performed to measure the ability to remove reactive oxygen species by the following method.
First, HepG2 cells were grown to 1×10^4 cells/well in a 96-well plate (black, clear bottom culture plate) by the above method, and then 5 μM of each compound screened in Example 1 was added and incubated for 6 hours. After adding thapsigargin or tunicamycin to induce endoplasmic reticulum stress, the reaction was put in an incubator for 24 hours. After that, 5 μM H2DCFDA (cell-permeant 2′,7′-dichlorodihydrofluorescein diacetate) was added and reacted for 30 minutes in an incubator at 37° C. Thereafter, after washing with PBS, it was placed in an incubator at 37° C. for 30 minutes and waited for luminescence to occur. Thereafter, fluorescence was measured with a microplate reader (Excitation: 488 nm, Emission: 508 nm).

Experiment [2] relates to HepG2 cells. The experiment is described as follows: Glucose absorption promoting effect (2-NBDG uptake) under ER stress. Format: cell-based, human. The following applies: 5 μM compound. As for the experimental part: HepG2 cells, a human liver cell line, were cultured in a high-glucose DMEM (Dulbecco's modified Eagle's medium, glucose 25 mM) medium in the presence of 10% fetal bovine serum (FBS), and then glucose uptake experiments were performed as follows.
First, HepG2 cells were grown to 1×10^4 cells/well in a 96-well plate (black, clear bottom culture plate) by the above method, and then 5 μM of each compound screened in Example 1 was added and incubated for 6 hours. Here, thapsigargin or tunicamycin, which induces endoplasmic reticulum stress, was added to hepatocytes, and then placed in an incubator at 37° C. for 24 hours to react. After that, insulin and 2-NBDG (2-(N-(7-Nitrobenz-2-oxa-1,3-diazol-4-yl)Amino)-2-Deoxyglucose) were added and reacted in an incubator at 37° C. for 3 hours, and after washing with PBS (phosphate buffered saline), fluorescence was measured with a microplate reader (Excitation: 488 nm, Emission: 508 nm).

Experiment [3] addresses T1, CYP4A (CYP4A11) (Homo sapiens, UniProt Q02928).
T1 construct: expressed in transfected cells; host or cells: HepG2 (human liver cell line), RIPA lysate
T1 sequence (Q02928 5-519): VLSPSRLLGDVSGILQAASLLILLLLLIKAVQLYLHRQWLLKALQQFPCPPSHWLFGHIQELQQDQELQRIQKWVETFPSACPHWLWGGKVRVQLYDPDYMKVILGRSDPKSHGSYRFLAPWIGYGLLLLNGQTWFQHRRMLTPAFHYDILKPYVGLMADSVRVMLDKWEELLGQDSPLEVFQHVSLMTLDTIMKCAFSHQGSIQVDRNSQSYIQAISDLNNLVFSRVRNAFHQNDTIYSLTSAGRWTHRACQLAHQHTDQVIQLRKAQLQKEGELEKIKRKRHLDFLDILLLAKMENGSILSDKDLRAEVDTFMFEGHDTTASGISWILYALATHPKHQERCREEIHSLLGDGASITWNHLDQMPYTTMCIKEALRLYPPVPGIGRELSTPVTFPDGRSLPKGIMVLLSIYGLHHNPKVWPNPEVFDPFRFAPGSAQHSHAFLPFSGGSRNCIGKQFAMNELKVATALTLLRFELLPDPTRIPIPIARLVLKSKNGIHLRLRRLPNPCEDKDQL
The experiment is described as follows: CYP4A activity inhibition, Luciferin-4A luminescence with CYP4A expressing HepG2 cell lysate. Format: biochemical. Particulars: FIG. 1: all compounds at 5 μM; FIG. 2: by concentration; compared with HET0016. How it is done:
CYP4A11 DNA (GenBank: S67580.1) was transfected into HepG2 cells, a human liver cell line, and cultured in an incubator for 24 hours so that the protein was expressed. After that, cells were pulverized by adding RIPA buffer (20 mM Tris-HCl (pH 7.5), 150 mM NaCl, 1 mM Na2EDTA, 1 mM EGTA, 1% NP-40, 1% sodium deoxycholate, 2.5 mM sodium pyrophosphate, 1 mM b-glycerophosphate, 1 mM Na3VO4, 1 μg/ml leupeptin) to extract proteins, and then CYP4A activity experiment and compound screening were performed as follows. […]
After putting it in the NADPH Regeneration system (20× sol.A, 100× sol.B in water, Cal. Number: D399, Thermo Fisher SCIENTIFIC), leave it at room temperature for 1 hour to allow the CYP4A reaction to occur sufficiently, and CYP4A reaction is finished by adding Luciferin Detection reagent, and induce a luminescence reaction to occur, and the reaction was carried out at room temperature for 20 minutes. The degree of inhibition of CYP4A activity was measured by comparing the luminescence values from each well with a microplate reader.

Experiment [4] has as its system HepG2 cells. The experiment is described as follows: Fat accumulation inhibitory activity in hepatocytes (palmitate, Nile-Red). The following applies: 5 μM compound; palmitate 72 hours; compared with positive control HET0016. Format: cell-based, human. How it is done: After culturing HepG2 cells, a human liver cell line, in a high-concentration DMEM medium (Dulbecco's modified Eagle's medium, glucose 25 mM) containing 10% fetal bovine serum (FBS), an experiment was performed to measure fat accumulation by the following method.
First, HepG2 cells were grown to 5×10^3 cells/well in a 96-well plate (black, clear bottom culture plate) by the above method, and 5 μM of each compound screened in Example 1 was added thereto, followed by incubation for 6 hours. Here, palmitate, a fatty acid that induces fat accumulation in hepatocytes, is added, and then placed in an incubator at 37° C. for 72 hours to react. Thereafter, 4% paraformaldehyde was added and reacted at room temperature for 15 minutes to fix, and then Nile-Red solution was added, light was blocked, and reaction was performed at 37° C. for 10 minutes. After the reaction time, fluorescence was measured with a microplate reader (Excitation: 530 nm, Emission: 635 nm).

Where [5] appears, read: Thapsigargin or Tunicamycin, compared with positive control HET0016.
Where [6] appears, read: Tunicamycin-treated group, compared with HET0016.

Turning to `CC(=O)Nc1ccc(S(=O)(=O)N2CCN(c3ccnc4cc(Cl)ccc34)CC2)cc1` [#18-1, N-(4-((4-(7-chloroquinolin-4-yl)piperazin-1-yl)sulfonyl)phenyl)acetamide], the “amount of ROS” value in experiment [1] was “significantly decreased”. Besides, the “inhibition of ROS production and removal of ROS” value in experiment [1] was “better inhibition of ROS production and removal of ROS than HET0016”. In addition, the “glucose absorption promoting effect (2-NBDG fluorescence)” value in experiment [2] (setting [5]) was “significant to the same or higher degree than that of the positive control group (HET0016)”; in experiment [2] (setting [6]), “more effective in promoting glucose absorption than the known HET0016 compound”. The “CYP4A inhibitory ability (luminescence)” value in experiment [3] is given as “particularly excellent among the selected compounds”. Also, in experiment [4], the “fat accumulation in liver cells (Nile-Red fluorescence)” value is given as “suppressed to a degree similar to that of the positive control group (HET0016)”.
Regarding `CC(=O)Nc1ccc(S(=O)(=O)N2CCN(c3cc(C)nc4ccccc34)CC2)cc1` [#18-2, N-(4-((4-(2-methylquinolin-4-yl)piperazin-1-yl)sulfonyl)phenyl)acetamide], the “amount of ROS” value in experiment [1] is recorded as “significantly decreased”. The “inhibition of ROS production and removal of ROS” value in experiment [1] is “better inhibition of ROS production and removal of ROS than HET0016”. The “glucose absorption promoting effect (2-NBDG fluorescence)” value in experiment [2] (setting [5]) is “significant to the same or higher degree than that of the positive control group (HET0016)”; in experiment [2] (setting [6]), “more effective in promoting glucose absorption than the known HET0016 compound”. Also, the “CYP4A inhibitory ability (luminescence)” value in experiment [3] was “particularly excellent among the selected compounds”. In addition, in experiment [4], the “fat accumulation in liver cells (Nile-Red fluorescence)” value is “suppressed to a degree similar to that of the positive control group (HET0016)”.

These data come from patent US12274705B2, “Composition comprising CYP4A-inhibiting compound as active ingredient for preventing or treating metabolic diseases” (Korea Basic Science Institute, priority 2018, dated 2025).
